Emax and EC50 data for four compounds are collected here from patent US20230265151A1, “GIP/GLP1 CO-AGONIST COMPOUNDS” (priority 2020, published 2023).

Like-named read-outs stand apart in the source and are kept apart here. Bounds are passed on as bounds.

Assay type in all cases: cell-based
The target of experiment [1] is hGLP-1R (Homo sapiens, UniProt P43220). Description: Functional cAMP formation (HTRF) in HEK-293 clonal cells expressing hGLP-1R, 0.1% bovine casein, without or with 1.0% human serum albumin. Also noted: expressed in transfected cells. Conditions: for EC50: geometric mean. An outline of the steps:
(§1)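 Readings of the HTRF 665/620 nm ratio, which falls as cAMP rises, were converted to nM cAMP using a standard curve after 30 min peptide exposure at 37° C.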
(In general: cAMP levels reflect the balance of adenylyl cyclase and phosphodiesterase activity.)

Experiment [2] has as its target T1, hGCGR (Homo sapiens, UniProt P47871).
T1 construct: expressed in transfected cells
Description: Functional cAMP formation (HTRF) in HEK-293 clonal cells expressing hGCGR, 0.1% bovine casein, without or with 1.0% human serum albumin. Summed up: as §1

The target in experiment [3] is T2, hGIPR (Homo sapiens, UniProt P48546).
T2 construct: expressed in transfected cells
T2 sequence (P48546 22-466): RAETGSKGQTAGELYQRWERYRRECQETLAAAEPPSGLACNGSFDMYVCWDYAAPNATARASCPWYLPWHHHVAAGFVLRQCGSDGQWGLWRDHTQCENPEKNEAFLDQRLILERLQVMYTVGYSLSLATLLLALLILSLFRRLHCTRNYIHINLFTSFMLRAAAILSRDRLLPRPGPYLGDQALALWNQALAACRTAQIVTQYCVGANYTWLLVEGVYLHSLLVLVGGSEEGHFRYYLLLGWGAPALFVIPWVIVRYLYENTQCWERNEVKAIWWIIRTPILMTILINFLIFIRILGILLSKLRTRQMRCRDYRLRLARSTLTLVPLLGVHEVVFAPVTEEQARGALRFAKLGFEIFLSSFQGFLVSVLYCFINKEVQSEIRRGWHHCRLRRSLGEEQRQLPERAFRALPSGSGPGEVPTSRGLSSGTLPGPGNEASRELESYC
Description: Functional cAMP formation (HTRF) in HEK-293 clonal cells expressing hGIPR, 0.1% bovine casein, without or with 1.0% human serum albumin. Conditions: for Emax: percent of maximal response to GIP(1-42)NH2. An outline of the steps: as §1

The mark [4] stands for this setting: hGLP-1R EC50, nM (SEM, n), cAMP, 37° C., 0.1% bovine casein (no human serum albumin).
Setting [5] is: hGCGR EC50, nM (SEM, n), cAMP, 37° C., 0.1% bovine casein (no human serum albumin), geometric mean.
Setting [6] is: hGCGR EC50, nM (SEM, n), cAMP, 37° C., 0.1% bovine casein and 1.0% human serum albumin, geometric mean (SEM, n).
[7] abbreviates: HEK293, read-out: hGIPR Emax, % ± SEM, cAMP, 37° C., 0.1% bovine casein and 1.0% human serum albumin.
Where [8] appears, read: hGIPR EC50, nM (SEM, n), cAMP, 37° C., 0.1% bovine casein (no human serum albumin), geometric mean.

Sequence of hGLP-1R (P43220 24-463): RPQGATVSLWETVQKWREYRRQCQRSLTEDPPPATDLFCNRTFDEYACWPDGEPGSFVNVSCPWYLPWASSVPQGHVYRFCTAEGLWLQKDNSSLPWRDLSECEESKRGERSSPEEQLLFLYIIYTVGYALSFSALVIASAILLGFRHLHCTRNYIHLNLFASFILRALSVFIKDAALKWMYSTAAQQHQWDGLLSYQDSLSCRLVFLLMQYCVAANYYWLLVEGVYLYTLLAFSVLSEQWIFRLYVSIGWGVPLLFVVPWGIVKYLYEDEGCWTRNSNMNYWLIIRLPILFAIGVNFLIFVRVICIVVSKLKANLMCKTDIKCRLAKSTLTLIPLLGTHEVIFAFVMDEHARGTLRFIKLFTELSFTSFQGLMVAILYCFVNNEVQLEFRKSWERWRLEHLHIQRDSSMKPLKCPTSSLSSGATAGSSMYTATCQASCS
T1 sequence (P47871 26-477): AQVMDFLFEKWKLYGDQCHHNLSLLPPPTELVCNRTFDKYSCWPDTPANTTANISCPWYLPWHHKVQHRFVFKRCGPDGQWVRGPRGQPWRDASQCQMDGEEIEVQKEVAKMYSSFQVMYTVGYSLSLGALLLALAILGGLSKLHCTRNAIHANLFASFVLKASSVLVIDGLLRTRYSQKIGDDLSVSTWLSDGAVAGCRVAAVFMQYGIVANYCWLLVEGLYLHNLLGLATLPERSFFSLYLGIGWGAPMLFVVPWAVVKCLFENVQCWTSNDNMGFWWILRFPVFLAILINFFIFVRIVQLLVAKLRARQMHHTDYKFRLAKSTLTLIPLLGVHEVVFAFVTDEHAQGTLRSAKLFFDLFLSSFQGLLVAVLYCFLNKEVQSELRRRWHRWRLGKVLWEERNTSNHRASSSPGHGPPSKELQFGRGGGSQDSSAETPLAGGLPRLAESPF

For `CC[C@H](C)[C@H](NC(=O)[C@H](CC(C)C)NC(=O)[C@](C)(Cc1ccc(O)cc1)NC(=O)[C@@H](CCC(=O)O)NC(=O)[C@@H](NC(=O)[C@H](Cc1ccccc1)NC(=O)[C@H](CCCCNC(=O)COCCOCCNC(=O)COCCOCCNC(=O)CCCCCCCCCOc1ccc(C(=O)O)cc1)NC(=O)C(C)(C)NC(=O)[C@H](CCC(N)=O)NC(=O)[C@H](C)NC(=O)[C@H](CCCCNC(=O)COCCOCCNC(=O)COCCOCCNC(=O)CCCCCCCCCOc1ccc(C(=O)O)cc1)NC(=O)[C@H](CCCN)NC(=O)[C@H](CC(=O)O)NC(=O)[C@H](CC(C)C)NC(=O)[C@](C)(CC(C)C)NC(=O)[C@@H](NC(=O)C(C)(C)NC(=O)[C@H](Cc1ccncc1)NC(=O)[C@H](CC(=O)O)NC(=O)[C@H](CO)NC(=O)[C@@H](NC(=O)[C@](C)(Cc1ccccc1F)NC(=O)[C@@H](NC(=O)CNC(=O)[C@H](CCC(=O)O)NC(=O)C(C)(C)NC(=O)[C@@H](N)Cc1ccc(O)cc1)[C@@H](C)O)[C@@H](C)O)[C@@H](C)CC)[C@@H](C)CC)C(=O)N[C@@H](CCC(=O)O)C(=O)NCC(=O)NCC(=O)N1CCC[C@H]1C(=O)N[C@@H](CO)C(=O)N[C@@H](CO)C(=O)NCC(=O)N[C@@H](C)C(=O)N1CCC[C@H]1C(=O)N1CCC[C@H]1C(=O)N1CCC[C@H]1C(=O)N[C@@H](CO)C(N)=O` [Example 392], the maximal effect (Emax) in experiment [1] (HEK293, read-out: hGLP-1R Emax, % ± SEM, cAMP, 37° C., 0.1% bovine casein, percent of maximal response to GLP-1(7-36)NH2, arithmetic mean) stood at 97.9%; in experiment [3] (setting [7]), 85.7%; in experiment [3] (HEK293, read-out: hGIPR Emax, % ± SEM, cAMP, 37° C., 0.1% bovine casein, arithmetic mean), 94.4%. In addition, the concentration giving a half-maximal response (EC50) was 0.521 nM in experiment [1] (setting [4]), over 9950 nM in experiment [2] (setting [5]), over 9950 nM in experiment [2] (setting [6]) and 0.0107 nM in experiment [3] (setting [8]).

Turning to `CC[C@H](C)[C@H](NC(=O)[C@H](CC(C)C)NC(=O)[C@](C)(Cc1ccc(O)cc1)NC(=O)[C@@H](CCC(=O)O)NC(=O)[C@@H](NC(=O)[C@H](Cc1ccccc1)NC(=O)[C@H](CCCCNC(=O)COCCOCCNC(=O)COCCOCCNC(=O)CC[C@H](NC(=O)CCCCCCCCCOc1ccc(C(=O)O)cc1)C(=O)O)NC(=O)C(C)(C)NC(=O)[C@H](CCC(N)=O)NC(=O)[C@H](C)NC(=O)[C@H](CCCCNC(=O)COCCOCCNC(=O)COCCOCCNC(=O)CC[C@H](NC(=O)CCCCCCCCCOc1ccc(C(=O)O)cc1)C(=O)O)NC(=O)[C@H](CCCN)NC(=O)[C@H](CC(=O)O)NC(=O)[C@H](CC(C)C)NC(=O)[C@](C)(CC(C)C)NC(=O)[C@@H](NC(=O)C(C)(C)NC(=O)[C@H](Cc1ccncc1)NC(=O)[C@H](CC(=O)O)NC(=O)[C@H](CO)NC(=O)[C@@H](NC(=O)[C@](C)(Cc1ccccc1F)NC(=O)[C@@H](NC(=O)CNC(=O)[C@H](CCC(=O)O)NC(=O)C(C)(C)NC(=O)[C@@H](N)Cc1ccc(O)cc1)[C@@H](C)O)[C@@H](C)O)[C@@H](C)CC)[C@@H](C)CC)C(=O)N[C@@H](CCCN)C(=O)NCC(=O)NCC(=O)N1CCC[C@H]1C(=O)N[C@@H](CO)C(=O)N[C@@H](CO)C(=O)NCC(=O)N[C@@H](C)C(=O)N1CCC[C@H]1C(=O)N1CCC[C@H]1C(=O)N1CCC[C@H]1C(=O)N[C@@H](CO)C(N)=O` [Example 408], the EC50 in experiment [1] (setting [4]) was 0.227 nM; in experiment [2] (setting [5]) it was over 9950 nM; in experiment [2] (setting [6]), over 9950 nM; in experiment [3] (setting [8]) it was 0.00888 nM. Also, the Emax in experiment [3] (setting [7]) was 84.4%.

Regarding `CC[C@H](C)[C@H](NC(=O)[C@H](CCCN)NC(=O)[C@H](CC(=O)O)NC(=O)[C@H](CC(C)C)NC(=O)[C@](C)(CC(C)C)NC(=O)[C@@H](NC(=O)[C@H](CO)NC(=O)[C@H](Cc1ccncc1)NC(=O)[C@H](CC(=O)O)NC(=O)[C@H](CO)NC(=O)[C@@H](NC(=O)[C@](C)(Cc1ccccc1F)NC(=O)[C@@H](NC(=O)CNC(=O)[C@H](CCC(=O)O)NC(=O)C(C)(C)NC(=O)[C@@H](N)Cc1ccc(O)cc1)[C@@H](C)O)[C@@H](C)O)[C@@H](C)CC)C(=O)N[C@@H](C)C(=O)N[C@@H](CCC(N)=O)C(=O)NC(C)(C)C(=O)N[C@@H](CCCCNC(=O)COCCOCCNC(=O)COCCOCCNC(=O)CC[C@H](NC(=O)CCCc1ccc(C(C)(C)C)cc1)C(=O)O)C(=O)N[C@@H](Cc1ccccc1)C(=O)N[C@H](C(=O)N[C@H](CCC(=O)O)C(=O)N[C@@](C)(Cc1ccc(O)cc1)C(=O)N[C@@H](CC(C)C)C(=O)N[C@H](C(=O)N[C@@H](CCCCNC(=O)COCCOCCNC(=O)COCCOCCNC(=O)CC[C@H](NC(=O)CCCc1ccc(C(C)(C)C)cc1)C(=O)O)C(=O)NCC(=O)NCC(=O)N1CCC[C@H]1C(=O)N[C@@H](CO)C(=O)N[C@@H](CO)C(=O)NCC(=O)N[C@@H](C)C(=O)N1CCC[C@H]1C(=O)N1CCC[C@H]1C(=O)N1CCC[C@H]1C(=O)N[C@@H](CO)C(N)=O)[C@@H](C)CC)[C@@H](C)CC` [Example 204], the concentration giving a half-maximal response (EC50) was 2.44 nM in experiment [1] (0.1% bovine casein and 1.0% human serum albumin, 37° C., read-out: hGLP-1R EC50, nM (SEM, n)); over 9950 nM in experiment [2] (0.1% bovine casein and 1.0% human serum albumin, 37° C., geometric mean, read-out: hGCGR EC50, nM (SEM, n)); over 9950 nM in experiment [2] (cAMP, incubated at 37° C., 0.1% bovine casein (no human serum albumin), geometric mean, read-out: hGCGR EC50, nM (SEM, n)); 0.341 nM in experiment [3] (0.1% bovine casein and 1.0% human serum albumin, 37° C., geometric mean, read-out: hGIPR EC50, nM (SEM, n)). Moreover, the Emax came out at 126% in experiment [1] (HEK293, percent of maximal response to GLP-1(7-36)NH2, 37° C., 0.1% bovine casein, arithmetic mean, read-out: hGLP-1R Emax, % ± SEM); 83.3% in experiment [3] (HEK293, 0.1% bovine casein and 1.0% human serum albumin, 37° C., read-out: hGIPR Emax, % ± SEM).

For the compound `CC[C@H](C)[C@H](NC(=O)[C@H](CC(C)C)NC(=O)[C@](C)(Cc1ccc(O)cc1)NC(=O)[C@H](CCCCNC(=O)CCOCCOCCOCCOCCOCCNC(=O)CC[C@H](NC(=O)CCCCCCCCCCCCC(=O)O)C(=O)O)NC(=O)[C@@H](NC(=O)[C@H](Cc1ccccc1)NC(=O)[C@H](CCCN)NC(=O)C(C)(C)NC(=O)[C@H](CCC(N)=O)NC(=O)[C@H](C)NC(=O)[C@H](CCC(N)=O)NC(=O)[C@H](CCCN)NC(=O)[C@H](CC(=O)O)NC(=O)[C@H](CC(C)C)NC(=O)[C@](C)(CC(C)C)NC(=O)[C@@H](NC(=O)C(C)(C)NC(=O)[C@H](Cc1ccncc1)NC(=O)[C@H](CC(=O)O)NC(=O)[C@H](CO)NC(=O)[C@@H](NC(=O)[C@](C)(Cc1ccccc1F)NC(=O)[C@@H](NC(=O)CNC(=O)[C@H](CCC(=O)O)NC(=O)C(C)(C)NC(=O)[C@@H](N)Cc1ccc(O)cc1)[C@@H](C)O)[C@@H](C)O)[C@@H](C)CC)[C@@H](C)CC)C(=O)N[C@@H](CCCCNC(=O)CCOCCOCCOCCOCCOCCNC(=O)CC[C@H](NC(=O)CCCCCCCCCCCCC(=O)O)C(=O)O)C(=O)NCC(=O)NCC(=O)N1CCC[C@H]1C(=O)N[C@@H](CO)C(=O)N[C@@H](CO)C(=O)NCC(=O)N[C@@H](C)C(=O)N1CCC[C@H]1C(=O)N1CCC[C@H]1C(=O)N1CCC[C@H]1C(=O)N[C@@H](CO)C(N)=O` [Example 467], the maximal response (Emax) in experiment [1] (HEK293, cAMP, 37° C., 0.1% bovine casein and 1.0% human serum albumin, percent of maximal response to GLP-1(7-36)NH2, read-out: hGLP-1R Emax, % ± SEM) turned out to be 97.9%; in experiment [1] (HEK293, cAMP, 37° C., 0.1% bovine casein, percent of maximal response to GLP-1(7-36)NH2, arithmetic mean, read-out: hGLP-1R Emax, % ± SEM) it was 110%; in experiment [3] (HEK293, cAMP, 37° C., 0.1% bovine casein and 1.0% human serum albumin, read-out: hGIPR Emax, % ± SEM), 88.4%. Further, the EC50 is 0.131 nM in experiment [1] (cAMP, 37° C., 0.1% bovine casein (no human serum albumin), read-out: hGLP-1R EC50, nM (SEM, n)); over 10100 nM in experiment [2] (cAMP, 37° C., 0.1% bovine casein (no human serum albumin), geometric mean, read-out: hGCGR EC50, nM (SEM, n)); over 10100 nM in experiment [2] (cAMP, 37° C., 0.1% bovine casein and 1.0% human serum albumin, geometric mean (SEM, n), read-out: hGCGR EC50, nM (SEM, n)); 0.0113 nM in experiment [3] (cAMP, 37° C., 0.1% bovine casein (no human serum albumin), geometric mean, read-out: hGIPR EC50, nM (SEM, n)); 0.35 nM in experiment [3] (cAMP, 37° C., 0.1% bovine casein and 1.0% human serum albumin, geometric mean (SEM, n), read-out: hGIPR EC50, nM (SEM, n)).

For orientation: Emax means the maximal effect, on the per cent scale that the assay sets. The EC50 is the concentration at which the effect is half-maximal.
